The test system of test [1] is tonic seizures (electrically induced convulsions). Description: Maximal Electroshock (percent protection from tonic seizures). It counts as in vivo. Conditions: mice; for ED50: Mus musculus, ip, 0.5 h, intraperitoneal, 30 minutes prior to electrical challenge. The protocol:
(§1) The pharmacological tests used are (1) maximal electroshock and (2) pentylenetetrazole (Metrazole®) chemical challenge where the percent protection afforded by the test compounds against convulsions induced by electrical stimulus or by the drug Metrazole is determined. These test procedures are described further hereinbelow.
(§2) The pharmacological test data are expressed either as an ED50 (mg/kg) or percent protection/dose (mg/kg) for test compounds administered intraperitoneally (IP) in mice.
Adult female mice in groups of eight were administered the test drug intraperitoneally (usually 100 mg/kg initially for screening) in liquid carrier (10 mg/ml), usually physiological saline or water, 30 minutes prior to electrical challenge. Animals were challenged electrically by placing brass electrodes on the corneas and applying an electrical stimulus (60 Hz, 5 m sec. pulse width, 34 mA intensity) for 0.2 seconds by way of a Grass Stimulator® and constant current unit and a Hunter Timer®. The absence of tonic seizures upon cessation of the stimuli was scored as protection in that animal. The number of animals protected from tonic seizures at a given dose of test drug was determined. […] EXP. THER. 96, 99-113.
In general terms: The maximal electroshock test induces tonic seizures with an electrical stimulus.

Test [2] relates to pentylenetetrazol-induced convulsions. As to the kind of experiment: Metrazole Chemical Challenge (Swinyard Method). It counts as in vivo. As to conditions: mice; for ED50: Mus musculus, ip, 0.5 h, intraperitoneal, 1/2 hour before Metrazole 80 mg/kg S.C. The protocol:
as §1, §2
Groups of 8 adult female mice were randomly assigned to dosage groups according to the method of Steel, R. G. D., and Torrie, J. H. (1960) in "Principles and Procedures of Statistics", McGraw-Hill Book Company, Inc., pp 99-100, pp 428-31. Each mouse was identified with a color code on its tail. The test compounds were administered as solutions or suspensions in 10 ml/kg mouse body weight of 0.5% aqueous methyl cellulose within 15 minutes of preparation of the suspension. Metrazole® (pentylenetetrazol) was prepared as a solution in physiological saline. The mice were not fasted prior to the test. Eight mice were tested at each dosage level.
Each mouse received one dose of the test drug (usually 100 mg/kg for screening) in the 0.5% aqueous methylcellulose or the control article (0.5% aqueous methylcellulose alone) intraperitoneally. Metrazole (80 mg/kg S.C.) was then given in a loose fold of skin on the back of the neck, 1/2 hour after the test compound or control article was given. All injections were given in a volume of 10 ml/kg mouse body weight. […] Anticonvulsant data were tabulated as the percent protection, i.e., [formula] […] Hefner Publishing Co.

Consider `NC(=O)N1CC(Oc2ccc(C(F)(F)F)cc2Cl)C1` [Example 1, 3-[2-Chloro-4-(trifluoromethyl)phenoxy]-1-azetidinecarboxamide], for which the ED50 (commonly the dose at which the effect has come halfway, by size or by number of responders) in test [1] worked out at 8.5 mg/kg; in test [2], 11.5 mg/kg.

In the case of `CNC(=O)N1CC(Oc2ccc(C(F)(F)F)cc2Cl)C1` [Example 2, 3-[2-Chloro-4-(trifluoromethyl)phenoxy]-N-methyl-1-azetidinecarboxamide], the 50% effective dose (ED50) in test [1] was 6.4 mg/kg; in test [2], 11.3 mg/kg.

The compound `C=CCNC(=O)N1CC(Oc2ccc(C(F)(F)F)cc2Cl)C1` [Example 3, 3-[2-Chloro-4-(trifluoromethyl)phenoxy]-N-(2-propenyl)-1-azetidinecarboxamide] had an ED50 in test [1] of 9.5 mg/kg. Moreover, the values for the Metrazole % protected in test [2] (dose 10 mg/kg IP) and in test [2] (dose 36 mg/kg IP) were 12.5% and 0%, respectively.

With `CN(C)C(=O)N1CC(Oc2ccc(C(F)(F)F)cc2Cl)C1` [Example 4, 3-[2-Chloro-4-(trifluoromethyl)phenoxy]-N,N-dimethyl-1-azetidinecarboxamide], the ED50 in test [1] is 8.2 mg/kg. For the same compound, the Metrazole % protected is listed as 37.5% in test [2] (dose 31.6 mg/kg IP), 0% in test [2] (dose 52 mg/kg IP) and 0% in test [2] (dose 100 mg/kg IP).

`CNC(=O)N1CC(Oc2ccccc2C(F)(F)F)C1` [Example 5, 3-[2-(Trifluoromethyl)phenoxy]-N-methyl-1-azetidinecarboxamide] returned a median effective dose (ED50) in test [1] of 125 mg/kg. This compound had a Metrazole % protected in test [2] (dose 120 mg/kg IP) of 0%.

Consider `CNC(=O)N1CC(Oc2cccc(C(F)(F)F)c2)C1` [Example 6, N-Methyl-3-[3-(trifluoromethyl)phenoxy]-1-azetidinecarboxamide], for which the median effective dose (ED50) in test [1] was found to be 29 mg/kg.

As for `CNC(=O)N1CC(Oc2ccc(C(F)(F)F)cc2)C1` [Example 7, 3-(4-Trifluoromethylphenoxy)-N-methyl-1-azetidinecarboxamide], the ED50 in test [1] turned out to be 25.7 mg/kg; in test [2] it was 33 mg/kg.

`CNC(=O)N1CC(Oc2ccccc2Cl)C1` [Example 8, 3-(2-Chlorophenoxy)-N-methyl-1-azetidinecarboxamide]: in test [1] (dose 56.2 mg/kg IP), the Electroshock % protected was 0%. In addition, in test [2] (dose 100 mg/kg IP), the Metrazole % protected turned out to be 0%.

`CNC(=O)N1CC(Oc2cccc(Cl)c2)C1` [Example 9, 3-(3-Chlorophenoxy)-N-methyl-1-azetidinecarboxamide] gave a median effective dose (ED50) in test [1] of 45.5 mg/kg. In addition, the Metrazole % protected in test [2] (dose 100 mg/kg IP) turned out to be 37.5%.

Consider `CNC(=O)N1CC(Oc2ccc(Cl)cc2)C1` [Example 10, 3-(4-Chlorophenoxy)-N-methyl-1-azetidinecarboxamide], for which the ED50 in test [1] worked out at 23.8 mg/kg; in test [2] it was 50 mg/kg.

For `NC(=O)N1CC(Oc2ccc(Cl)cc2Cl)C1` [Example 11, 3-(2,4-Dichlorophenoxy)-1-azetidinecarboxamide], the Electroshock % protected in test [1] (dose 17.8 mg/kg IP) turned out to be 0%; in test [1] (dose 31.6 mg/kg IP), 100%. This compound showed an ED50 in test [2] of 31.6 mg/kg.

`CN(C)C(=O)N1CC(Oc2ccc(Cl)cc2Cl)C1` [Example 12, 3-(2,4-Dichlorophenoxy)-N,N,-dimethyl-1-azetidinecarboxamide]: the Electroshock % protected in test [1] (dose 17.8 mg/kg IP) came out at 0%; in test [1] (dose 31.6 mg/kg IP), 100%.

Take `CNC(=O)N1CC(Oc2ccc(Cl)cc2Cl)C1` [Example 13, 3-(2,4-Dichlorophenoxy)-N-methyl-1-azetidinecarboxamide]: the ED50 is 18.5 mg/kg in test [1] and 40.9 mg/kg in test [2].

With `Cc1cccc(Cl)c1OC1CN(C(N)=O)C1` [Example 14, 3-(2-Chloro-6-methylphenoxy)-1-azetidinecarboxamide], the 50% effect level in test [1] (ED50) was put at a dose of 81.5 mg/kg.

As to `Cc1cccc(Cl)c1OC1CN(C(=O)N(C)C)C1` [Example 15, 3-(2-Chloro-6-methylphenoxy)-N,N-dimethyl-1-azetidinecarboxamide], in test [1] (dose 31.6 mg/kg IP), the Electroshock % protected was 37.5-62.5%.

`CNC(=O)N1CC(Oc2c(C)cccc2Cl)C1` [Example 16, 3-(2-Chloro-6-methyphenoxy)-N-methyl-1-azetidinecarboxamide] showed a median effective dose (ED50) in test [1] of 53 mg/kg.

`CNC(=O)N1CC(Oc2ccc(F)cc2Cl)C1` [Example 17, 3-(2-Chloro-4-fluorophenoxy)-N-methyl-1-azetidinecarboxamide]: the ED50 in test [1] came to 44.5 mg/kg; in test [2], 32.8 mg/kg.

As to `CNC(=O)N1CC(Oc2cc(C(F)(F)F)ccc2Cl)C1` [Example 18, 3-[2-Chloro-5-(trifluoromethyl)phenoxy]-N-methyl-1-azetidinecarboxamide], the results for the Electroshock % protected in test [1] (dose 56.2 mg/kg IP) and in test [1] (dose 100 mg/kg IP) were 37.5% and 50%, respectively.

Take `CNC(=O)N1CC(Oc2cc(C(F)(F)F)ccc2F)C1` [Example 19, 3-[2-Fluoro-5-(trifluoromethyl)phenoxy]-N-methyl-1-azetidine-carboxamide]: the Electroshock % protected in test [1] (dose 31.6 mg/kg IP) and in test [1] (dose 56.2 mg/kg IP) was 50% throughout.

As to `CNC(=O)N1CC(Oc2ccc(Cl)c(Cl)c2)C1` [Example 20, 3-(3,4-Dichlorophenoxy)-N-methyl-1-azetidinecarboxamide], the values for the ED50 in test [1] and in test [2] were 39.5 mg/kg and 49.5 mg/kg, respectively.

Source of the values: US5095014A, “3-(2-chloro-4-(trifluoromethyl)phenoxy)-1-azetidine carboxamides having anticonvulsant activity” (A. H. Robins Company, Incorporated, priority 1990, dated 1992).
